According to US11178895B2, “Composition for enhancing immunity of insects and method thereof” (NatureWise Biotech & Medicals Corporation, priority 2017, dated 2021):

Tested on: field bees
Assay: Honey bee acute contact toxicity test (topical imidacloprid): tolerance of bees to imidacloprid
Assay type: in vivo
Conditions: control group fed 50% sucrose water
From the text: Many reports confirm that neonicotinoids cause damage to the immune system of bees and many species (Mason et al., 2013). It is clear that damage to the immune system may be one of the important causes of bee killing by imidacloprid (a pesticide). According to the experimental results of the composition of the invention on the survival rate of bees and the regulation of immune genes, in this experiment, field bees that are easily exposed to pesticides are used as the test subjects, and sugar water containing a concentration of 0.5 mg/mL of Macaranga tanarius extract is fed to observe whether the tolerance of bees to imidacloprid can be enhanced.
The experiment employed Topical application method with reference to US EPAOCSPP 850.3020: Honey Bee Acute Contact Toxicity Test. […] After the bees were frozen and fainted, 1 μg/bee of the imidacloprid solution was administered quantitatively to the prothorax tergum of the bee by a microapplicator. The solvent control group was administered with 1 […]. Each group had 10 bees. After the administration of the drug, the bees were transferred to a constant-temperature growth box for breeding. The sugar water containing 0.5 mg/mL of Macaranga tanarius extract was provided to feed the bees in the experimental group, and the control group was fed with 50% sucrose water. […]

Structure (SMILES): O=[N+]([O-])NC1=NCCN1Cc1ccc(Cl)nc1 [imidacloprid]
- 24-hour average mortality rate (6.7 ng/μL imidacloprid): 19.30%
- 24-hour average mortality rate (23.8 ng/μL imidacloprid): 36.84%
